The source made the active and inactive calls.

For assay [1], the system named is P388. Briefly: cells. It is filed as functional. The settings on record: Mus musculus.
In assay [2] the test system is SN12K1. Briefly: cells. The settings on record: Homo sapiens. It is filed as functional.
Assay [3] relates to P388/ADR. Briefly: cells. It is filed as functional. The settings on record: Mus musculus.
Assay [4] can be described thus: HepG2 cell cytotoxicity, dose response, cytotoxicity control, plate reader, cherry-pick, antagonist series (AID 743416). Format: functional, cell-based.
A short description of assay [5]: A549 cell cytotoxicity, dose response, cytotoxicity control, plate reader, cherry-pick, antagonist series (AID 743412). It is filed as functional, cell-based.
The nature of assay [6]: growth suppression of beta-catenin-knockout colon cells, dose response, cell-based, HCT116, human colon tumor (AID 1045).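 Further: HCT116 colon tumor cells with beta catenin knocked out; cells exposed to compound for 60 hours.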 It is filed as functional.
Assay [7] in a line: growth suppression of PTEN-null colon cells, dose response, cell-based, HCT116 PTEN knockout (AID 1047).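 Further: HCT116 colon tumor cells with PTEN knocked out; cells exposed to compound for 60 hours before readout; potency for loss of cell viability measured by luminescence.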 It is filed as functional.
Assay [8] in a line: inhibitors of HIV Env-driven cell fusion, dose response, cherry-pick (AID 652057). It is filed as functional, cell-based.
Assay [9] is described as follows: inhibitors of clade B AD8 Env fusion, dose response, cell-based, cherry-pick (AID 652062).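 Further: luciferase signal from cell-cell fusion driven by HIV-1 clade B AD8 Env; potency is for inhibitors of fusion seen as a drop in luminescence.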 Format: functional.
Assay [10] addresses T1, Sentrin-specific protease 8 (Homo sapiens, UniProt Q96LD8).
T1 sequence (Q96LD8 whole entry): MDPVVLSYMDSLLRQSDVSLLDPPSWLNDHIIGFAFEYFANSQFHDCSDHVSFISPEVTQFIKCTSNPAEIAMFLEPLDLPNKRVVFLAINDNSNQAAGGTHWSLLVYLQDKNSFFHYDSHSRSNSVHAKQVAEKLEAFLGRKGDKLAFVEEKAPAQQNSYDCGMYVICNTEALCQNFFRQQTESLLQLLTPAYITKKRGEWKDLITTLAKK
Format: functional.

Assay [11] is described as follows: HEp-2 cell cytotoxicity, dose response, cytotoxicity control for RSV inhibitor project, HTS (AID 2410). It is filed as functional. The settings on record: human respiratory syncytial virus.
Assay [12] addresses T2, Sentrin-specific protease 7 (Homo sapiens, UniProt Q9BQF6).
T2 sequence (Q9BQF6 whole entry): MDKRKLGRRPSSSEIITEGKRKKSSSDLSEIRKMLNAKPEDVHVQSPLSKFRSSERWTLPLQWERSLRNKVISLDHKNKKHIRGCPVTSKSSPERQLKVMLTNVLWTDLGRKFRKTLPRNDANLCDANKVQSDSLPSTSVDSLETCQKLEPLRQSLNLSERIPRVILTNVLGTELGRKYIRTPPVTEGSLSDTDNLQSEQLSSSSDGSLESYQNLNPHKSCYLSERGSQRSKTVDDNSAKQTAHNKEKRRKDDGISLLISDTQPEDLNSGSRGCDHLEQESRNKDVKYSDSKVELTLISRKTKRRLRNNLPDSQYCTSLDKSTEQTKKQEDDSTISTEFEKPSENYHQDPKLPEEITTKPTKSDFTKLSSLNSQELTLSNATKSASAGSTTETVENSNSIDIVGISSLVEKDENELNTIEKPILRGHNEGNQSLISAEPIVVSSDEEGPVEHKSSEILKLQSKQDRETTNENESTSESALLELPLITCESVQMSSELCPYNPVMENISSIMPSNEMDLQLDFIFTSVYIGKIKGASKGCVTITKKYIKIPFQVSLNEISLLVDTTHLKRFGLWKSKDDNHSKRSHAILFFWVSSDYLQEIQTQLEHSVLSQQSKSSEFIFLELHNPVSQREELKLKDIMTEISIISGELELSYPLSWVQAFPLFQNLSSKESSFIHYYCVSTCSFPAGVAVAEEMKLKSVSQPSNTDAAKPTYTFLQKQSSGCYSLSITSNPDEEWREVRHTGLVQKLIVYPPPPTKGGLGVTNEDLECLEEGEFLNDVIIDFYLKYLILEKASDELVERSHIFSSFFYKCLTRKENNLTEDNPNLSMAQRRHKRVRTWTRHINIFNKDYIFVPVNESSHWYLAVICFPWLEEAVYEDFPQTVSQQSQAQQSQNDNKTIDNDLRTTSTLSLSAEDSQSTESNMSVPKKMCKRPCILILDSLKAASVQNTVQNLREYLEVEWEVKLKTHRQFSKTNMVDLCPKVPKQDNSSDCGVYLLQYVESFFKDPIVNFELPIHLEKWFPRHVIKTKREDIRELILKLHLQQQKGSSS
Format: functional.

In assay [13] the target is T3, Caspase-3 (Homo sapiens, UniProt P42574).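 Further: Dose-response selectivity test against caspase-3 for candidate inhibitors of sentrin-specific proteases (SENPs).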
T3 sequence (P42574 whole entry): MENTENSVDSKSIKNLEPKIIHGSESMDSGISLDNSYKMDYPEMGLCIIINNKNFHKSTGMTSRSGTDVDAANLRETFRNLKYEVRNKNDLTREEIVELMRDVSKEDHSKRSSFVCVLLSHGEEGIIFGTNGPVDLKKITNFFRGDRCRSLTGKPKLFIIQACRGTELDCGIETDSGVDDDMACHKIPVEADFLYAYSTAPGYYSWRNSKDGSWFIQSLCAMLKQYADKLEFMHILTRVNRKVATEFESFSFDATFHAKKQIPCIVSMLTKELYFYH
Format: functional.

Assay [14] addresses T4, Sentrin-specific protease 6 (Homo sapiens, UniProt Q9GZR1).
T4 sequence (Q9GZR1 whole entry): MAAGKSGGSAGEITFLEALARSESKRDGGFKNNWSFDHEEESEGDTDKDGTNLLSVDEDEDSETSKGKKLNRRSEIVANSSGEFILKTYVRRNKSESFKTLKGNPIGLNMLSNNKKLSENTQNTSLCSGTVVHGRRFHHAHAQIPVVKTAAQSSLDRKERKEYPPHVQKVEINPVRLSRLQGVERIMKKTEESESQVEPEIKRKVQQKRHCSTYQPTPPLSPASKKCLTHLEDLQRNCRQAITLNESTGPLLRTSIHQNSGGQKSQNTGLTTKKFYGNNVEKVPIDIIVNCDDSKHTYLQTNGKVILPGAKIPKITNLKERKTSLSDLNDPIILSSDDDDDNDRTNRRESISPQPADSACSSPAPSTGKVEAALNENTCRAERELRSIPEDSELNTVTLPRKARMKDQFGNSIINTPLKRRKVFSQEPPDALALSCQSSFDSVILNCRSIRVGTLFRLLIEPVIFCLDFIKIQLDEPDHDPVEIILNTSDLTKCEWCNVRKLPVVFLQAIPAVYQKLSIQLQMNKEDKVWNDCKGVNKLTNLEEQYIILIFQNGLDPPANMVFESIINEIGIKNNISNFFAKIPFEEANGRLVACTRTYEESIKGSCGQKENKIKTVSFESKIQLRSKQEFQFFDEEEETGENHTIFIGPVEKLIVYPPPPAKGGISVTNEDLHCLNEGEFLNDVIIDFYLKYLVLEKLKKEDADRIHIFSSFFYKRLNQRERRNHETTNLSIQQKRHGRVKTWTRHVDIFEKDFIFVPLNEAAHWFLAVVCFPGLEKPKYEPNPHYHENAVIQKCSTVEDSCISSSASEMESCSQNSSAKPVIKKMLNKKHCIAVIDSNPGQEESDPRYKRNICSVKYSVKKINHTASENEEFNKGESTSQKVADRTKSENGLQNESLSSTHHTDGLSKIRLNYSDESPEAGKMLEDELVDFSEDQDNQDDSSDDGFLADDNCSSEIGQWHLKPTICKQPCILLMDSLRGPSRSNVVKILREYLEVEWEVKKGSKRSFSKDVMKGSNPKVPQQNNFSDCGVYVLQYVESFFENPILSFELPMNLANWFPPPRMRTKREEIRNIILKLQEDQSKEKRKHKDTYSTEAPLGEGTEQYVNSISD
It is filed as functional.

Assay [15] deals with T5, Protein skinhead-1 (Caenorhabditis elegans, UniProt P34707).
T5 sequence (P34707 whole entry): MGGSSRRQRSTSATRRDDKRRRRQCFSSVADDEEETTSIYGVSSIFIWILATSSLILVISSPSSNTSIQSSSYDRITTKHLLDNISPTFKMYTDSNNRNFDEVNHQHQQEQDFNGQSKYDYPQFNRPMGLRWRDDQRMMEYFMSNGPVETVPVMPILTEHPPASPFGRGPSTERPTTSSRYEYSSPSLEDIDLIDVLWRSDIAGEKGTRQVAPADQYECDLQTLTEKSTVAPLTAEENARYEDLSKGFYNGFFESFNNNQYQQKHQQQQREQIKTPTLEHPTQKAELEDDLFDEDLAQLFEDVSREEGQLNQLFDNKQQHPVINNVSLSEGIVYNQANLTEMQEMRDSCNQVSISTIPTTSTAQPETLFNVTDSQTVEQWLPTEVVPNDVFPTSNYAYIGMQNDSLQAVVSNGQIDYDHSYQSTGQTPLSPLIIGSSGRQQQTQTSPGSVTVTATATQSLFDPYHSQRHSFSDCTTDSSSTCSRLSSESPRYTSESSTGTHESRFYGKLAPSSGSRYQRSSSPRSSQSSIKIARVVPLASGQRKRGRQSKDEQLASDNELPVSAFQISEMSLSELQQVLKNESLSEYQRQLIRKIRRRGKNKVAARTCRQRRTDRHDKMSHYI
It is filed as functional.

With `C=C1CC(OC)(C(O)C(=O)N[C@H]2OCO[C@H]3C2O[C@H](C[C@@H](CO)OC)C(C)(C)C3OC)O[C@H](C)[C@@H]1C` (some centres undefined), the GI50 in assay [1], in assay [2] and in [3] was < 0.00931 µM (active) in each case.

Consider `CN(c1ccccc1)c1c(-c2ccccc2)c(=O)oc2c1ccc1occc12`, for which the GI50 (in general, the concentration giving 50% growth inhibition) in assay [1] was 37.8 µM (inactive); in assay [2], > 100 µM (inactive); in assay [3], 74.6 µM (inactive).

In the case of `COc1ccccc1CN(C)C[C@@H]1OCc2cnnn2CCCC(=O)N([C@H](C)CO)C[C@H]1C`, the AC50 (usually the concentration giving half of the maximal activity seen) in assay [4] was 39.8 µM (active); in [5], > 52 µM (inactive).

Regarding `O=C(N/N=C/c1cccs1)c1cccc(NC(=O)c2ccc(Cl)cc2)c1`, the EC50 – broadly, the concentration that produces a half-maximal response – in [6] is 55.4 µM (active); in assay [7], 61.1 µM (active).

In the case of `Nc1c(C(=O)Nc2ccc(C3=NCCN3)cc2)cccc1C(=O)Nc1ccc(C2=NCCN2)cc1`, the GI50 in assay [1] was 12.5 µM (inactive); in assay [2], > 100 µM (inactive); in assay [3] it was > 100 µM (inactive).

Regarding `CCN(CC)c1c(C)c(C(=O)OC)nn1-c1ccccc1`, the GI50 in assay [1] was 34.8 µM (inactive); in assay [2], > 100 µM (inactive); in assay [3], 31.6 µM (inactive).

Consider `COc1cc2c(cc1Oc1c(Oc3c(O)c(OC)cc4c3C(CC(C)C)N(C)CC4)c(OC)cc3c1C(CC(C)C)N(C)CC3)C(CC(C)C)N(C)CC2` (centres undefined), for which the 50% growth inhibitory concentration (GI50) was 0.279 µM (active) in assay [1], 0.794 µM (active) in assay [2] and 0.706 µM (active) in [3].

As to `Cc1c(Cl)cccc1N/C(SCC(=O)N1CCCCCC1)=C(/C#N)c1nc2ccccc2s1`, the concentration for a half-maximal effect (EC50) in assay [6] was 4.02 µM (active); in assay [7], 4.06 µM (active).

With `COc1ccc2c(c1[N+](=O)[O-])CC[C@@H]1[C@@H]2CC[C@]2(C)C(=O)CC[C@@H]12`, the GI50 in assay [1] is > 25 µM (inactive); in assay [2], > 25 µM (inactive); in [3] it was 20.9 µM (inactive).

Take `COc1cccc(S(=O)(=O)N(C)C[C@H]2Oc3cc(C4=CCCC4)ccc3S(=O)(=O)N([C@H](C)CO)C[C@H]2C)c1`: the results for the half-maximal activity concentration (AC50) in assay [8] and in [9] were 3.31 µM (active) and 3.77 µM (active), respectively.

As for `Oc1ncc(N(CCCl)CCCl)c(O)n1` [URACIL MUSTARD], the GI50 in assay [1] was 1.26 µM (inactive); in assay [2] it was 17.4 µM (inactive); in assay [3], 1.77 µM (inactive).

For `O=C(NC(=S)Nc1ccc(NC(=O)c2cccs2)cc1)c1cc2ccccc2o1`, the EC50 was 22.6 µM (active) in [6] and 15.5 µM (active) in assay [7].

As for `CCCCCCCCCCCCCCCCOCC(COP(=O)([O-])OCC[N+](C)(C)C)OCCCCCCCCCCCCCCCC` (centres undefined), the GI50 in assay [1], in [2] and in assay [3] was > 100 µM (inactive) each time.

In the case of `Cc1cccnc1Nc1nc(-c2ccc(O)cc2O)cs1`, the half-inhibitory concentration (IC50) (commonly the concentration at which inhibition is half-maximal) in assay [10] was 15.5 µM (active); in assay [12] it was 3.79 µM (active); in assay [13], 41.8 µM (active); in assay [14], 8 µM (active). Moreover, in [11], the CC50 (as a rule, the concentration that lowers cell viability or growth by half) was 27 µM (active).

`O=C1C(=O)c2cc([N+](=O)[O-])ccc2-c2ccc([N+](=O)[O-])cc21`: the results for the GI50 in assay [1], in assay [2] and in [3] were 0.201 µM (active), 0.29 µM (active) and 0.292 µM (active), respectively.

Take `COc1ccc(/C(O)=C/c2nc3ccc(C(=O)NCCc4cccc(C)c4)cc3nc2O)cc1OC`: the concentration for a half-maximal effect (EC50) in assay [6] is 5.65 µM (active); in [7] it was 6.66 µM (active).

In the case of `Cc1ccccc1-c1nnc(-c2ccccc2C)o1`, the IC50 in assay [10] is 95.5 µM (active); in assay [15] it was > 100 µM (inactive); in [12], 12.1 µM (active); in assay [13], 20.5 µM (active); in [14], 6.65 µM (active).
